The target in test [1] is T1, SNAP-mGluR2-TMD (Rattus norvegicus, UniProt P31421).
T1 construct: mGluR2-TMD (rat) starts at Q558; expressed in transfected cells; host or cells: HEK 293T
Description: Single-molecule pulldown (SiMPull) photobleaching step counting, SNAP-mGluR2-TMD. The note with it: 10 µM LY48, 1 µM BINA, 10 µM Ro 64, 1 µM MNI 137. The text has this: Photobleaching step analysis of individual complexes allows for precise determination of receptor stoichiometry and, unlike FRET or BRET-based methods, this assay is not sensitive to conformation or relative fluorophore orientation. […] However, this work relied on GFP-tagged receptors which leads to a lysate that contains both surface-targeted and intracellular receptors, potentially including immature or partially degraded protein that can confound analysis.
To restrict our analysis to surface-targeted receptors, we expressed N-terminally SNAP-tagged receptor variants and labeled them with membrane-impermeable fluorophores.
To test this, we incubated SNAP-mGluR2-TMD expressing cells and lysates with PAMs or NAMs during the SiMPull experiment.
Briefly, to prevent non-specific sticking of proteins, flow chambers were prepared with mPEG-passivated glass slides and coverslips doped with ~1% biotinylated mPEG, as previously described. Prior to each experiment, chambers were incubated with 0.2 mg/mL NeutrAvidin (ThermoFisher) for 2 min followed by 10 nM of a biotinylated anti-HA antibody (abcam ab26228) for 20–30 min. After each conjugation step, the chambers were washed with T50 buffer (50 mM NaCl, 10 mM Tris, pH 7.5).
After labeling, cells were dissociated from coverslips by incubating with Ca^2+-free PBS for 20 min followed by gentle pipetting. […] Following 1 hr of lysis at 4°C, cells were centrifuged at 16,000 g for 20 min before the supernatant was collected and maintained on ice. The cell lysate was diluted in a 0.1% detergent dilution buffer to obtain sparse immobilization of labeled protein on the passivated slide. After obtaining an optimal density of immobilized protein, the flow chamber was washed with dilution buffer to remove unbound protein. For SiMPull experiments with PAMs and NAMs, drugs were added to cells during the dissociation step (after dye labeling), and maintained throughout the cell lysis and entire experiment.
Single molecules were imaged with a 100x objective on an inverted microscope (Olympus IX73) in total internal reflection fluorescence (TIRF) mode. Images were taken with an scMOS camera (Hamamatsu ORCA-Flash4v3.0) at 20 Hz with 50 ms exposures. […] Multiple independent experiments were performed for each condition. […] A SNAP-tag labeling efficiency of ~80% was used to calculate the proportion of dimers and monomers. Occasional co-localization of two proteins within a diffraction limited spot along with antibody and NeutrAvidin bivalency both make a small contribution to >1 step photobleaching, leading to a background % two-step bleaching level of ~5–10%. All data were produced from at least two separate transfections/protein preparations for each condition.

The target in test [2] is T2, SNAP-mGluR2 (full-length) (Rattus norvegicus, UniProt P31421).
T2 construct: HEK 293T cells expressing full-length mGluR2; expressed in transfected cells; host or cells: HEK 293T
T2 sequence (P31421 19-872): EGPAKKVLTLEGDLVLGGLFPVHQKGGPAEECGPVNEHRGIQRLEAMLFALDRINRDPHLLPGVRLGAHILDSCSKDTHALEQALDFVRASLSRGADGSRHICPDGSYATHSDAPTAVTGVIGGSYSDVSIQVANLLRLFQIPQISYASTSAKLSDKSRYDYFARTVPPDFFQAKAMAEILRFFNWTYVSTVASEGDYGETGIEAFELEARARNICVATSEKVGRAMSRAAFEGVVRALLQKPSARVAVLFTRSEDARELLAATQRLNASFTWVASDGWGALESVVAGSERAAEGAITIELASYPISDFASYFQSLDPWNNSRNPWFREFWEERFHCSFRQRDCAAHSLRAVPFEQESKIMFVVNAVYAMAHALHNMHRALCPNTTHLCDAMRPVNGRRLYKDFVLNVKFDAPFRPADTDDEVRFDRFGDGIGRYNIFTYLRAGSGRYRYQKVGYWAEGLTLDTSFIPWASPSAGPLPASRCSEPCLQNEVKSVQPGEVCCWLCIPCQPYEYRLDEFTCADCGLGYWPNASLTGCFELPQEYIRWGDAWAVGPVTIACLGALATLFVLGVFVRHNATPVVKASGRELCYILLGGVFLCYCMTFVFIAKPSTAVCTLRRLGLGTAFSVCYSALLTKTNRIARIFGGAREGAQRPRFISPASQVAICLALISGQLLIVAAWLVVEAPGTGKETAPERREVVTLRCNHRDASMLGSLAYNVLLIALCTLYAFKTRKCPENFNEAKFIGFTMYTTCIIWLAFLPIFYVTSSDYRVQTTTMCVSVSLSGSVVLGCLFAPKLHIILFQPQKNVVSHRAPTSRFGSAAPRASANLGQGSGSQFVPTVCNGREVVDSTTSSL
The experiment in a line: Inter-LBD FRET assay with full-length SNAP-mGluR2. In kind it is cell-based. The note with it: saturating concentrations; for direct effect on inter-LBD FRET (no orthosteric agonist for modulators): drug applied alone; for effect on inter-LBD FRET response to DCG-IV: agonist DCG-IV. The text has this: We next sought to further probe the variation in PAM-induced inter-TMD FRET changes. […] We used an inter-LBD FRET assay to assess the relative strength of allosteric modulation by different mGluR2 PAMs. Agonists induce a decrease in FRET between fluorophore-conjugated N-terminal SNAP- and CLIP-tags (Figure 4E). […] We tested this effect for all PAMs by applying a saturating concentration of DCG-IV followed by co-application of a saturating concentration of each PAM, which produced further FRET decreases (Figure 4F,G).
(§1) Fluorophores were diluted in EX solution, which was also used to wash coverslips following labeling and prior to mounting on the microscope. After labeling, cells were mounted on an inverted microscope (Olympus IX73) and imaged with a 60x objective. […] Clusters of cells were analyzed together using ImageJ and FRET was calculated as FRET=(IAcceptor)/(IDonor +IAcceptor) where I is fluorescence intensity. No corrections were made for bleed-through between channels or the contribution of donor-donor or acceptor-acceptor dimers as analysis was limited to relative FRET changes between drug treatments rather than absolute FRET values. […] FRET changes calculated for dose–response curves were normalized to the response to saturating […] applied within the same recording and dose–response curves were obtained from multiple cell clusters and averaged from at least three separate experiments. Dose–response curves were fit using Prism (Graphpad). All drugs were purchased from Tocris, prepared in EX solution, and delivered with a gravity-driven perfusion system. For kinetics measurements a pressurized perfusion system (Automate Scientific) was used to produce a flow rate of 0.5 mL/s. Kinetic analysis was performed in Microsoft Excel. The time between 10% and 90% FRET increase or decrease was determined manually. For photo-bleaching/donor-recovery experiments, images were taken in donor and acceptor channels at baseline and again followed by a 1 min exposure to 640 nm laser illumination at maximum intensity. All experiments were performed at room temperature. All data were produced from at least two separate transfections for each condition.

In test [3] the target is T1, SNAP-mGluR2-TMD. Description: Inter-TMD FRET assay in living HEK 293T cells. The test is classed as cell-based. The note with it: for inter-TMD FRET response to drug alone: drug applied alone, XA up to 50 µM; for EC50: normalized to saturating LY48.
Text: We therefore sought to develop a FRET sensor that reports on activation-associated motions driven by allosteric drugs and hypothesized that an N-terminal fluorophore on the isolated TMD should report on any inter-TMD rearrangement while allowing the receptor to maintain G-protein coupling (Figure 3A). […] To test if LBD-independent inter-TMD rearrangement is a feature of other mGluRs, we asked if donor and acceptor conjugation to SNAP-mGluR5-TMD would allow for the detection a FRET response to a PAM.
Cells were cultured in DMEM with 5% FBS on poly-L-lysine-coated glass coverslips. DNA plasmids were transfected into cells using Lipofectamine 3000 (Thermo Fisher). […] For single-molecule pulldown (SiMPull) experiments, cells were transfected with 0.7 μg DNA of HA and SNAP-tagged receptor constructs, unless otherwise noted. For FRET experiments, cells were transfected with either SNAP-tagged constructs at 0.5–0.7 μg of DNA/well or SNAP and CLIP-tagged constructs at a ratio of 1:2 with 0.3 μg of SNAP DNA/well.
as §1

[4] abbreviates: SNAP-mGluR2-TMD labeled with donor and acceptor, mean ± s.e.m., read-out: inter-TMD FRET increase EC50.

Entries after “also recorded” stand apart in the source; their conditions may differ. Read-outs that look alike come from different tables or passages of the source. Some results are limits rather than exact numbers.

The EC50 is the concentration at which the effect is half-maximal.

T1 sequence (P31421 558-872 limits assumed): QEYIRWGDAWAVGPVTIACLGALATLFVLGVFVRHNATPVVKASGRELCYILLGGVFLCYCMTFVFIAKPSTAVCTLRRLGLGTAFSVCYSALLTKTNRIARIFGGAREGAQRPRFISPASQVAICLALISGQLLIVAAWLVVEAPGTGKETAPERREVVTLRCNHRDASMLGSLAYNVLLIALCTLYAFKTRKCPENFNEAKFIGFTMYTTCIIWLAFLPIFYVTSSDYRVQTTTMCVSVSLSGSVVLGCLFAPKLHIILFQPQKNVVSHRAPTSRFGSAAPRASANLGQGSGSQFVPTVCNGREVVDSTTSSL

As for `N#Cc1cc(C2=Nc3ccc(Br)cc3NC(=O)C2)ccn1` [MNI 137], in test [1], the “higher order complexes with >3 bleaching steps in presence of drug” value (“higher order complexes” below) was below 10% and the “two-step photobleaching events of SNAP-mGluR2-TMD in presence of drug” value (from here on “two-step photobleaching events”) was 40–45%. Also, in test [2], the “direct effect on inter-LBD FRET (no orthosteric agonist for modulators)” value is listed as “did not alter the basal inter-LBD FRET” and the “effect on inter-LBD FRET response to DCG-IV” value was “partial antagonism”. Moreover, the “effect on LY48-induced inter-TMD FRET response” value in test [3] (NAM versus LY48) is given as “blocked”. Further, in test [3] (applied after BINA), the “effect on BINA-induced inter-TMD FRET increase” value was “reversed the BINA-induced FRET increase back to baseline”. Besides, in test [3] (applied after Ro 64), the “effect on Ro 64-induced inter-TMD FRET increase” value is “partially reverse”. Moreover, the “inter-TMD FRET response to drug alone” value in test [3] is on record as “minimal FRET changes”.
For `COc1ccccc1Oc1ccc(N(Cc2cccnc2)S(=O)(=O)CC(F)(F)F)cc1` [LY48], in test [1], the “higher order complexes” value is reported as below 10% and the “two-step photobleaching events” value is 40–45%. Also, the “direct effect on inter-LBD FRET (no orthosteric agonist for modulators)” value in test [2] is given as “no effect on FRET level; also recorded: unable to directly induce LBD closure”. Further, the EC50 in test [3] (SNAP- and CLIP-mGluR2-TMD co-expressed, read-out: inter-TMD FRET increase EC50, co-expression of SNAP- and CLIP-mGluR2-TMD) worked out at 900 ± 100 nM. In addition, the EC50 in test [3] (setting [4]) turned out to be 1200 ± 100 nM. Moreover, the EC50 in test [3] (co-expression of dominant negative Gα protein, read-out: inter-TMD FRET increase EC50 with dominant negative G protein) came out at 600 ± 40 nM. Further, in test [3], the “inter-TMD FRET response to drug alone” value was “readily detectable FRET increase”. In addition, in test [3] (saturating concentrations), the “inter-TMD FRET response onset” value lay within 10 to 40 s and the “inter-TMD FRET response reversal” value is below 2 min.
In the case of `Clc1cccc(Cl)c1/C(=C/n1cncn1)OC1CCCCCC1` [Ro 64], in test [1], the “higher order complexes” value is below 10% and the “two-step photobleaching events” value is 40–45%. In test [2], the “direct effect on inter-LBD FRET (no orthosteric agonist for modulators)” value is “did not alter the basal inter-LBD FRET” and the “effect on inter-LBD FRET response to DCG-IV” value is on record as “partial antagonism”. Moreover, in test [3], the “inter-TMD FRET OFF kinetics” value is on record as “very slow OFF kinetics” and the “inter-TMD FRET response to drug alone” value is “robust, dose-dependent inter-TMD FRET increases”. In test [3] (setting [4]), the EC50 is 2100 ± 200 nM.

The record behind these values is publication PMC6588349 (eLife, 2019).
